# Data published in patent publication US20210145850A1, “COMPOSITION, FOR OSTEOARTHRITIS TREATMENT, COMPRISING HYDROPHILIZED SULFASALAZINE AND HYALURONIC ACID AND METHOD FOR PREPARING SAME” (BMI KOREA CO., LTD, priority 2015, published 2021).
# Tests used:
# [1] = system: osteoarthritis animal model induced by 1 mg MIA (Monosodium IodoAcetate) in synovium; test: In vivo anti-osteoarthritis efficacy test, X-ray of joint region; set-up: species or system rat (Sprague Dawley)
# Protocol: FIG. 4 is X-ray radiographs of osteoarthritis animal model (rat) induced by treating 1 mg MIA in synovium at 8 weeks after administering the osteoarthritis composition comprising hydrophilized sulfasalazine and hyaluronic acid according to the present invention of 0 to 8 mM. After inducing an osteoarthritis animal model by treating 1 mg MIA (Monosodium IodoAcetate) to synovium of 8 week-old rat (Sprague Dawley), after 1 week, mixtures prepared in Example 1 was administered by intraarticular injection.
# [2] = taken orally, maximum dose of 4 g/day; cited from earlier work
# [3] = as component of synovial fluid; cited from earlier work
Compound,anti-osteoarthritis effect ([1]; less than 2 mM (0.08 w/v %)),"osteoarthritis treatment effect ([1]; low concentration, for example 1 mM)",blood concentration [2] [µg/mL],half life [3]
O=C(O)c1cc(/N=N/c2ccc(S(=O)(=O)Nc3ccccn3)cc2)ccc1O [sulfasalazine],anti-osteoarthritis effect could not be shown,could not show an effective level of osteoarthritis treatment effect,12,–
hyaluronic acid,–,–,–,more than 13 hours
